In ChEMBL document CHEMBL4321839, “Structure-activity relationships (SAR) of triazine derivatives: Promising antimicrobial agents” (Eur J Med Chem, 2020):
Converted amounts (≈) assume the structure as drawn.

Experiments:
[1] = test system: Escherichia coli; test: Antimicrobial activity against Escherichia coli NCIM-2065 assessed as reduction in microbial growth after 24 hrs by CLSI based broth dilution method; type: functional; settings: NCIM-2065, 24 h
[2] = test system: Bacillus subtilis; test: Antimicrobial activity against Bacillus subtilis NCIM-2063 assessed as reduction in microbial growth after 24 hrs by CLSI based broth dilution method; type: functional; settings: NCIM-2063, 24 h
[3] = test system: Lacticaseibacillus casei; test: Antibacterial activity against Lactobacillus casei NCIM-2651 assessed as reduction in microbial growth incubated for 24 hrs by broth dilution method; type: functional; settings: NCIM-2651, 24 h
[4] = test system: Escherichia coli; test: Antimicrobial activity against Escherichia coli ATCC 25922 assessed as reduction in microbial growth after 24 to 48 hrs by microdilution susceptibility test; type: functional
[5] = test system: Staphylococcus aureus; test: Antimicrobial activity against Staphylococcus aureus […] assessed as reduction in microbial growth after 24 to 48 hrs by microdilution susceptibility test; type: functional
[6] = test system: Bacillus cereus; test: Antimicrobial activity against Bacillus cereus NCIM-2156 assessed as zone of inhibition at 5 ug after 24 hrs by disk diffusion method; type: functional; settings: NCIM-2156, 24 h, read-out: IZ
[7] = test system: Bacillus subtilis; test: Antimicrobial activity against Bacillus subtilis NCIM-2063 assessed as zone of inhibition at 5 ug after 24 hrs by disk diffusion method; type: functional; settings: NCIM-2063, 24 h, read-out: IZ
[8] = test system: Pseudomonas aeruginosa; test: Antimicrobial activity against Pseudomonas aeruginosa NCIM-2036 assessed as zone of inhibition at 5 ug after 24 hrs by disk diffusion method; type: functional; settings: NCIM-2036, 24 h, read-out: IZ
[9] = test system: Staphylococcus aureus; test: Antimicrobial activity against Staphylococcus aureus NCIM-2079 assessed as zone of inhibition at 5 ug after 24 hrs by disk diffusion method; type: functional; settings: NCIM-2079, 24 h, read-out: IZ
[10] = test system: Escherichia coli; test: Antimicrobial activity multi drug-resistant against Escherichia coli; type: functional
[11] = test system: Staphylococcus aureus; test: Antimicrobial activity methicillin-resistant against Staphylococcus aureus; type: functional
[12] = test system: Escherichia coli; test: Antimicrobial activity against multi drug-resistant Escherichia coli assessed as reduction in microbial growth after 24 to 48 hrs by microdilution susceptibility test; type: functional
[13] = Cytotoxicity against African green monkey Vero cells incubated for 72 hrs by MTT assay; type: cell-based; settings: chlorocebus sabaeus
[14] = test system: Staphylococcus aureus; test: Antimicrobial activity against methicillin-resistant Staphylococcus aureus assessed as reduction in microbial growth after 24 to 48 hrs by microdilution susceptibility test; type: functional
[15] = test system: Candida albicans; test: Antifungal activity against Candida albicans NCIM-3102 at 18 to 24 hrs by CLSI based alamar blue assay; type: functional
[16] = test system: Proteus vulgaris; test: Antimicrobial activity against Proteus vulgaris NCIM-2027 assessed as reduction in microbial growth after 24 hrs by CLSI based broth dilution method; type: functional; settings: NCIM-2027, 24 h
[17] = test system: Staphylococcus aureus; test: Antimicrobial activity against methicillin-resistant Staphylococcus aureus clinical isolate MRSA1 assessed as reduction in microbial growth by two-fold serial dilution method; type: functional
[18] = test system: Escherichia coli; test: Antimicrobial activity against Escherichia coli MTCC 443 assessed as reduction in microbial growth after 24 to 48 hrs by broth dilution method; type: functional
[19] = test system: Klebsiella pneumoniae; test: Antimicrobial activity against multi drug-resistant Klebsiella pneumoniae assessed as reduction in microbial growth by two-fold serial dilution method; type: functional
[20] = test system: Pseudomonas aeruginosa; test: Antimicrobial activity against Pseudomonas aeruginosa MTCC 1688 assessed as reduction in microbial growth after 24 to 48 hrs by broth dilution method; type: functional
[21] = test system: Pseudomonas aeruginosa; test: Antimicrobial activity against Pseudomonas aeruginosa NCIM-2036 after 24 hrs by CLSI based broth dilution method; type: functional; settings: NCIM-2036, 24 h
[22] = test system: Proteus mirabilis; test: Antimicrobial activity against Proteus mirabilis assessed as zone of inhibition after 18 hrs by disk diffusion method; type: functional
[23] = test system: Nakaseomyces glabratus; test: Antifungal activity against Candida glabrata NCIM-3266 at 18 to 24 hrs by CLSI based alamar blue assay; type: functional
[24] = test system: Enterococcus faecium; test: Antimicrobial activity against vancomycin-resistant Enterococcus faecium ATCC 51559 assessed as reduction in microbial growth incubated for 18 to 24 hrs by two-fold serial dilution method; type: functional

Compound `O=[N+]([O-])c1cccc(Nc2nc(NC3=NC(c4ccccc4O)=CC(c4ccccc4[N+](=O)[O-])S3)nc(Nc3cccc([N+](=O)[O-])c3)n2)c1` (configuration not stated) has an MIC [1] of 12.5 µg/mL and an MIC [2] of 6.25 µg/mL.
Work on `Nc1nc(Nc2nc(-c3ccc(Cl)cc3)cs2)nc(Sc2ccccc2)n1` yielded an MIC [3] of 3.12 µg/mL.
In the case of `O=C(CNc1nc(NCC(=O)N/N=C/c2ccc(Cl)cc2)nc(Nc2ccc(-c3ccc(Nc4nc(NCC(=O)N/N=C/c5ccc(Cl)cc5)nc(NCC(=O)N/N=C/c5ccc(Cl)cc5)n4)cc3)cc2)n1)N/N=C/c1ccc(Cl)cc1`, the MIC [4] is reported as 12.5 to 25 µg/mL and the MIC [5] is reported as 12.5 to 25 µg/mL.
`Nc1nc(Nc2ccccc2)nc(Nc2nc(-c3ccc(Cl)cc3)cs2)n1` showed an MIC [3] of 3.12 µg/mL.
In the case of `Cc1ccc(Nc2nc(Nc3ccc(C)cc3)nc(N3CCN(C(=S)Nc4ccnc5cc(Cl)ccc45)CC3)n2)cc1`, the zone of inhibition at 5 µg/disc [6] is reported as 9 to 17 mm, the zone of inhibition at 5 µg/disc [7] is reported as 16 to 17 mm and the zone of inhibition at 5 µg/disc [8] is reported as 9 to 17 mm. The zone of inhibition at 5 µg/disc [9] was 16 to 17 mm.
With `O=C(O)C1=CC(C2CC2)C2=C(CC(F)C3=NN=C(c4ccc([N+](=O)[O-])cc4)CN32)C1=O` (configuration not stated) the MIC [10] was 0.25 µg/mL (≈ 0.589 µM) and the MIC [11] was 0.25 to 8 µg/mL (≈ 0.589 to 18.9 µM).
Compound `O=C(O)C1=CC(C2CC2)C2=C(CC(F)C3=NN=C(c4ccccc4F)CN32)C1=O` (configuration not stated) has an MIC [10] of 0.25 µg/mL (≈ 0.629 µM) and an MIC [11] of 0.25 to 8 µg/mL (≈ 0.629 to 20.1 µM).
Work on `O=C(O)c1ccc(Nc2nc(Cl)nc(NCc3ccccc3)n2)cc1` yielded an MIC [4] of 50 µg/mL, an MIC [12] of 100 µg/mL and a CC50 at 72 h [13] of 225 µg/mL (≈ 632 µM). The MIC [14] was 25 µg/mL and the MIC [5] was 12.5 µg/mL.
In the case of `Clc1ccc(-c2csc(Nc3nc(N(c4ccccc4)c4ccccc4)nc(N(c4ccccc4)c4ccccc4)n3)n2)cc1`, the MIC [15] is reported as 0.63 µg/mL (≈ 1.01 µM).
`O=C1CSC(=O)N1c1nc(Nc2cccc(Cl)c2)nc(Nc2cccc(Cl)c2)n1` gave an MIC [16] of 3.91 µg/mL.
Work on `O=[N+]([O-])c1ccc(Nc2nc(Nc3ccc([N+](=O)[O-])cc3)nc(N3CCN(C(=S)Nc4ccnc5cc(Cl)ccc45)CC3)n2)cc1` yielded a zone of inhibition at 5 µg/disc [6] of 9 to 17 mm, a zone of inhibition at 5 µg/disc [7] of 16 to 17 mm and a zone of inhibition at 5 µg/disc [8] of 9 to 17 mm. For the same compound, the zone of inhibition at 5 µg/disc [9] was 16 to 17 mm.
`O=C(O)C1=CC(C2CC2)C2=C(CC(F)C3=NN=C(c4cccc(Cl)c4)CN32)C1=O` (configuration not stated) gave an MIC [10] of 8 µg/mL (≈ 19.3 µM) and an MIC [11] of 8 µg/mL (≈ 19.3 µM).
Work on `O=C(CNc1nc(NCC(=O)N/N=C/c2ccc(Cl)cc2)nc(Nc2ccc(Nc3nc(NCC(=O)N/N=C/c4ccc(Cl)cc4)nc(NCC(=O)N/N=C/c4ccc(Cl)cc4)n3)cc2)n1)N/N=C/c1ccc(Cl)cc1` yielded an MIC [4] of 12.5 to 25 µg/mL and an MIC [5] of 12.5 to 25 µg/mL.
Work on `CC1(C)S[C@@H]2[C@H](NC(=O)[C@H](N)c3ccccc3)C(=O)N2[C@H]1C(=O)O.O.O.O` [AMPICILLIN TRIHYDRATE] yielded an MIC [4] of 25 µg/mL and an MIC [5] of 12.5 µg/mL.
`CC1(C)S[C@@H]2[C@H](NC(=O)[C@H](N)c3ccccc3)C(=O)N2[C@H]1C(=O)O` [AMPICILLIN] gave an MIC [4] of 25 µg/mL, an MIC [17] of 6.25 µg/mL and an MIC [18] of 100 µg/mL. The MIC [12] was over 250 µg/mL, the MIC [19] was 12.5 µg/mL and the MIC [20] was 100 µg/mL. It also gave an MIC [14] of over 250 µg/mL and an MIC [5] of 12.5 µg/mL.
Compound `C=CC1=C(C(=O)O)N2C(=O)[C@@H](NC(=O)/C(=N\OCC(=O)O)c3csc(N)n3)[C@H]2SC1` [CEFIXIME] has an MIC [16] of 3.91 to 7.81 µg/mL, an MIC [1] of 3.91 to 7.81 µg/mL and an MIC [21] of 3.12 to 6.25 µg/mL (≈ 6.89 to 13.8 µM).
With `O=C(O)c1cn(C2CC2)c2cc(N3CCNCC3)c(F)cc2c1=O` [CIPROFLOXACIN] the MIC [11] was 4 µg/mL (≈ 12.1 µM) and the “inhibition zone (IZ)” value [22] was 22 mm.
`OC(Cn1cncn1)(Cn1cncn1)c1ccc(F)cc1F` [FLUCONAZOLE] gave an MIC [23] of 0.63 µg/mL (≈ 2.06 µM) and an MIC [15] of 0.63 µg/mL (≈ 2.06 µM).
Compound `C[C@H]1COc2c(N3CCN(C)CC3)c(F)cc3c(=O)c(C(=O)O)cn1c23.C[C@H]1COc2c(N3CCN(C)CC3)c(F)cc3c(=O)c(C(=O)O)cn1c23.O` [LEVOFLOXACIN] has an MIC [1] of 3.12 µg/mL, an MIC [2] of 3.12 µg/mL and a zone of inhibition at 5 µg/disc [7] of 14 to 15 mm. The zone of inhibition at 5 µg/disc [9] was 14 to 15 mm.
`CC[C@H](C)[C@H](NC(=O)CN)C(=O)NCC(=O)N[C@@H](C)C(=O)N[C@H](C(=O)N[C@@H](CC(C)C)C(=O)N[C@@H](CCCCN)C(=O)N[C@H](C(=O)N[C@@H](CC(C)C)C(=O)N[C@H](C(=O)N[C@H](C(=O)NCC(=O)N[C@@H](CC(C)C)C(=O)N1CCC[C@H]1C(=O)N[C@@H](C)C(=O)N[C@@H](CC(C)C)C(=O)N[C@H](C(=O)N[C@@H](CO)C(=O)N[C@@H](Cc1c[nH]c2ccccc12)C(=O)N[C@H](C(=O)N[C@@H](CCCCN)C(=O)N[C@@H](CCCNC(=N)N)C(=O)N[C@@H](CCCCN)C(=O)N[C@@H](CCCNC(=N)N)C(=O)N[C@@H](CCC(N)=O)C(=O)N[C@@H](CCC(N)=O)C(N)=O)[C@@H](C)CC)[C@@H](C)CC)[C@@H](C)O)[C@@H](C)O)C(C)C)C(C)C` [MELITTIN] gave an MIC [24] of 2 µM.
With `CN[C@@H]1[C@H](O[C@H]2[C@H](O[C@H]3[C@H](O)[C@@H](O)[C@H](N=C(N)N)[C@@H](O)[C@@H]3N=C(N)N)O[C@@H](C)[C@]2(O)C=O)O[C@@H](CO)[C@H](O)[C@H]1O` [STREPTOMYCIN] the MIC [3] was 12.5 µg/mL.
